Counter-ions that a name gives are not always drawn.
Biological target: ROCK2 (Homo sapiens, UniProt O75116)
Test: ROCK2 kinase inhibition assay (LABCHIP 3000 Reader, FITC peptide substrate);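 note: rho kinase reaction read by separating phosphorylated from unphosphorylated peptide on chip, with inhibition of kinase activity computed per concentration across a dose-response series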
Conditions: not given

Sequence of ROCK2 (O75116 whole entry, species assumed): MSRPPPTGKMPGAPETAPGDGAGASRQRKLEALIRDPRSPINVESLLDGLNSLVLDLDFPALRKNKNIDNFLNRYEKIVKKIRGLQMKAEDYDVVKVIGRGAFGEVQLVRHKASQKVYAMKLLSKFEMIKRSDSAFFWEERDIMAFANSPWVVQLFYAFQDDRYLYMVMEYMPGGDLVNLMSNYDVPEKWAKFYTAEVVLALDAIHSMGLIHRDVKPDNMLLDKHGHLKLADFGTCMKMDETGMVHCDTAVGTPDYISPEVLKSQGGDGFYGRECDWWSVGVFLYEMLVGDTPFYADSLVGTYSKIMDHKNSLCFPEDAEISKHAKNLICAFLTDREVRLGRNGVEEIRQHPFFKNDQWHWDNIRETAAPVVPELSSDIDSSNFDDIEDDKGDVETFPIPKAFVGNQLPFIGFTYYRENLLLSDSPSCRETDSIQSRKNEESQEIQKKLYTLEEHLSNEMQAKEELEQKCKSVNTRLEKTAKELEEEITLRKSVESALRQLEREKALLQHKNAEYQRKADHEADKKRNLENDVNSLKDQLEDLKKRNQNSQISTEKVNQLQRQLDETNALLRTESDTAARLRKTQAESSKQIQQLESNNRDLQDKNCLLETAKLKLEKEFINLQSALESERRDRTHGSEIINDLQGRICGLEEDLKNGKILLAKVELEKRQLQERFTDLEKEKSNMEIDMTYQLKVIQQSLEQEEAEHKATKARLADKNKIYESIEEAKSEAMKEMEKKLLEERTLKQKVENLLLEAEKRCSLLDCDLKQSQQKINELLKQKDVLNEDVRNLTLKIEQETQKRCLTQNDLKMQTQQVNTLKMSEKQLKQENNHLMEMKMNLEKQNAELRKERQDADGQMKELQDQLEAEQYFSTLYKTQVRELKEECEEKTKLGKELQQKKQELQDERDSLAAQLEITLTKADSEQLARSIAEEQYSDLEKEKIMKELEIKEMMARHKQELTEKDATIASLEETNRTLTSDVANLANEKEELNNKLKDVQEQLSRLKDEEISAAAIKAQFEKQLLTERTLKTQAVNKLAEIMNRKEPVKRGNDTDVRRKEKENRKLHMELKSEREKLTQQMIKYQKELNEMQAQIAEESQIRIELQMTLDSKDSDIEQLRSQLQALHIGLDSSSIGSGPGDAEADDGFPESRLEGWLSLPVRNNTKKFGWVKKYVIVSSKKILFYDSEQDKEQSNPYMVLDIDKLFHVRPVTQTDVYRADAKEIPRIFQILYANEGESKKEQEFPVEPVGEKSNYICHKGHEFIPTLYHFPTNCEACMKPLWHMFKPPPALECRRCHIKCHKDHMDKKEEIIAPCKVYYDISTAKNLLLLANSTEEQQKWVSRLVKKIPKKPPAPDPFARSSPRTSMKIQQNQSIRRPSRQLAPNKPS

| SMILES | IC50 |
| --- | --- |
| [2H]C([2H])([2H])n1cc(-c2ccc3c(C(=O)N[C@H]4CC5(C4)C[C@H](Oc4ncccc4C(N)=O)C5)nnn3c2)cn1 (stereo partly drawn) [Example 363, N-((aR)-6-((3-carbamoylpyridin-2-yl)oxy)spiro[3.3]heptan-2-yl)-6-(1-(^2H3)methyl-1H-pyrazol-4-yl)-[1,2,3]triazolo[1,5-a]pyridine-3-carboxamide] | < 5 nM |
| NC(=O)c1cccnc1O[C@H]1CC2(C[C@H](NC(=O)c3nnn4cc(-c5cnn(C6CC6)c5)ccc34)C2)C1 (stereo partly drawn) [Example 364, N-((aR)-6-((3-carbamoylpyridin-2-yl)oxy)spiro[3.3]heptan-2-yl)-6-(1-cyclopropyl-1H-pyrazol-4-yl)-[1,2,3]triazolo[1,5-a]pyridine-3-carboxamide] | < 5 nM |
| CC(C)(O)Cn1cc(-c2ccc3c(C(=O)N[C@H]4CC5(C4)C[C@H](Oc4ncccc4C(N)=O)C5)nnn3c2)cn1 (stereo partly drawn) [Example 365, N-((aR)-6-((3-carbamoylpyridin-2-yl)oxy)spiro[3.3]heptan-2-yl)-6-(1-(2-hydroxy-2-methylpropyl)-1H-pyrazol-4-yl)-[1,2,3]triazolo[1,5-a]pyridine-3-carboxamide] | 5 to 50 nM |
| CC(C)n1cc(-c2ccc3c(C(=O)N[C@H]4CC5(C4)C[C@H](Oc4ncccc4C(N)=O)C5)nnn3c2)c(C(F)(F)F)n1 (stereo partly drawn) [Example 366, N-((aR)-6-((3-carbamoylpyridin-2-yl)oxy)spiro[3.3]heptan-2-yl)-6-(1-isopropyl-3-(trifluoromethyl)-1H-pyrazol-4-yl)-[1,2,3]triazolo[1,5-a]pyridine-3-carboxamide] | 5 to 50 nM |
| Cn1cc(-c2ccc3c(C(=O)N[C@H]4CC5(C4)C[C@H](Oc4ncccc4C(N)=O)C5)nnn3c2)cn1 (stereo partly drawn) [Example 367, N-((aR)-6-((3-carbamoylpyridin-2-yl)oxy)spiro[3.3]heptan-2-yl)-6-(1-methyl-1H-pyrazol-4-yl)-[1,2,3]triazolo[1,5-a]pyridine-3-carboxamide] | < 5 nM |
| [H][C@]1(Oc2ncccc2C(N)=O)C[C@@]2(C[C@H](NC(=O)c3nnn4cc(Br)ccc34)C2)C1 (stereo partly drawn) [Example 368, 6-bromo-N-((aR)-6-((3-carbamoylpyridin-2-yl)oxy)spiro[3.3]heptan-2-yl)-[1,2,3]triazolo[1,5-a]pyridine-3-carboxamide] | 5 to 50 nM |
| [H][C@]1(Oc2ncccc2C(N)=O)C[C@@]2(C[C@H](NC(=O)c3nnn4cc(N5CCOCC5)ccc34)C2)C1 (stereo partly drawn) [Example 369, N-((aR)-6-((3-carbamoylpyridin-2-yl)oxy)spiro[3.3]heptan-2-yl)-6-morpholino-[1,2,3]triazolo[1,5-a]pyridine-3-carboxamide] | 250 to 2500 nM |
| [H][C@]1(Oc2ncccc2C(N)=O)C[C@@]2(C[C@H](NC(=O)c3cnc4cc(-c5ccc(=O)n(C)c5)ccn34)C2)C1 (stereo partly drawn) [Example 370, N-((aR)-6-((3-carbamoylpyridin-2-yl)oxy)spiro[3.3]heptan-2-yl)-7-(1-methyl-6-oxo-1,6-dihydropyridin-3-yl)imidazo[1,2-a]pyridine-3-carboxamide] | < 5 nM |
| [H][C@]1(Oc2ncccc2C(N)=O)C[C@@]2(C[C@H](NC(=O)c3cnn4cc(-c5ccc(=O)n(C)c5)ccc34)C2)C1 (stereo partly drawn) [Example 371, N-((aR)-6-((3-carbamoylpyridin-2-yl)oxy)spiro[3.3]heptan-2-yl)-6-(1-methyl-6-oxo-1,6-dihydropyridin-3-yl)pyrazolo[1,5-a]pyridine-3-carboxamide] | 5 to 50 nM |
| [H][C@]1(Oc2ncccc2C(N)=O)C[C@@]2(C[C@H](NC(=O)c3nn(C(F)F)c4cc(N5CCOCC5)ccc34)C2)C1 (stereo partly drawn) [Example 372, N-((aR)-6-((3-carbamoylpyridin-2-yl)oxy)spiro[3.3]heptan-2-yl)-1-(difluoromethyl)-6-morpholino-1H-indazole-3-carboxamide] | < 5 nM |
| [H][C@]1(Oc2ncccc2C(N)=O)C[C@@]2(C[C@H](NC(=O)c3nnn4c(Cl)c(OCc5ccccc5)ccc34)C2)C1 (stereo partly drawn) [Example 373, 6-(benzyloxy)-N-((aR)-6-((3-carbamoylpyridin-2-yl)oxy)spiro[3.3]heptan-2-yl)-7-chloro-[1,2,3]triazolo[1,5-a]pyridine-3-carboxamide] | 250 to 2500 nM |
| [H][C@]1(Oc2ncccc2C(N)=O)C[C@@]2(C[C@H](NC(=O)c3nnn4c(C5CC5)c(OCc5ccccc5)ccc34)C2)C1 (stereo partly drawn) [Example 374, 6-(benzyloxy)-N-((aR)-6-((3-carbamoylpyridin-2-yl)oxy)spiro[3.3]heptan-2-yl)-7-cyclopropyl-[1,2,3]triazolo[1,5-a]pyridine-3-carboxamide] | 50 to 250 nM |
| [H][C@]1(Oc2ncccc2C(N)=O)C[C@@]2(C[C@H](NC(=O)c3nnn4cc(OCC(C)(C)O)ccc34)C2)C1 (stereo partly drawn) [Example 375, N-((aR)-6-((3-carbamoylpyridin-2-yl)oxy)spiro[3.3]heptan-2-yl)-6-(2-hydroxy-2-methylpropoxy)-[1,2,3]triazolo[1,5-a]pyridine-3-carboxamide] | 50 to 250 nM |
| [H][C@]1(Oc2ncccc2C(N)=O)C[C@@]2(C[C@H](NC(=O)c3cc(C4CC4)n4c(Cl)c(OCc5ccccc5)ccc34)C2)C1 (stereo partly drawn) [Example 376, 6-(benzyloxy)-N-((aR)-6-((3-carbamoylpyridin-2-yl)oxy)spiro[3.3]heptan-2-yl)-5-chloro-3-cyclopropylindolizine-1-carboxamide] | 5 to 50 nM |
| [H][C@]1(Oc2ncccc2C(N)=O)C[C@@]2(C[C@H](NC(=O)c3cnn(-c4ccc(Br)cc4)c3C)C2)C1 (stereo partly drawn) [Example 377] | 5 to 50 nM |
| [H][C@]1(Oc2ncccc2C(N)=O)C[C@@]2(C[C@H](NC(=O)c3cnn(-c4ccc(N5CCOCC5)cc4)c3C)C2)C1 (stereo partly drawn) [Example 378] | 50 to 250 nM |
| [H][C@]1(Oc2ncccc2C(N)=O)C[C@@]2(C[C@H](NC(=O)c3cnn(-c4ccccc4)c3C)C2)C1 (stereo partly drawn) [Example 379] | 50 to 250 nM |
| NC(=O)c1cccnc1OC1CC2(CC(NC(=O)c3cn(-c4ccccc4)nn3)C2)C1 [Example 389, N-[(aR)2-({6-(1-phenyl-1H-1,2,3-triazole)-4-carboxamido]spiro[3.3]heptan-2-yl}oxy)nicotinamide] | 50 to 250 nM |
| NC(=O)c1cccnc1OC1CC2(CC(NC(=O)c3c[nH]c(-c4ccccc4)n3)C2)C1 [Example 390, N-[(aR)2-({6-(2-phenyl-1H-imidazole)-4-carboxamido]spiro[3.3]heptan-2-yl}oxy)nicotinamide] | 250 to 2500 nM |
| Cc1c(C(=O)NC2CC3(C2)CC(Oc2ncccc2C(N)=O)C3)cnn1-c1ccc(C#N)c(F)c1 (stereo not drawn) [Example 391] | 50 to 250 nM |
| Cc1nc(C(=O)NC2CC3(C2)CC(Oc2ncccc2C(N)=O)C3)c(C)n1-c1ccccc1 (stereo not drawn) [Example 392] | 50 to 250 nM |
| NC(=O)c1cccnc1OC1CC2(CC(NC(=O)c3cnn(-c4cccc(Cl)c4F)c3)C2)C1 (stereo not drawn) [Example 393] | 5 to 50 nM |
| NC(=O)c1cccnc1OC1CC2(CC(NC(=O)c3cnn(-c4cccc(Cl)c4)c3)C2)C1 (stereo not drawn) [Example 394] | 5 to 50 nM |
| COc1cccc(-n2cc(C(=O)NC3CC4(C3)CC(Oc3ncccc3C(N)=O)C4)cn2)c1 (stereo not drawn) [Example 395] | 5 to 50 nM |

Same assay, conditions: read-out: ROCK2 Activity (ROCK2 IC50); 5 μM ATP, 1.5 μM peptide substrate, pH 7.5

| SMILES | IC50 |
| --- | --- |
| COc1ccc2c(c1)CCc1c(C(=O)NC3CC4(C3)CC(Oc3ncccc3C(N)=O)C4)nn(C)c1-2 [Example 380, N-((aR)-6-((3-carbamoylpyridin-2-yl)oxy)spiro[3.3]heptan-2-yl)-7-methoxy-1-methyl-4,5-dihydro-1H-benzo[g]indazole-3-carboxamide] | 5 to 50 nM |
| COc1ccc2c(c1)CCc1c-2nn(C)c1C(=O)NC1CC2(C1)CC(Oc1ncccc1C(N)=O)C2 [Example 381, N-((aR)-6-((3-carbamoylpyridin-2-yl)oxy)spiro[3.3]heptan-2-yl)-7-methoxy-2-methyl-4,5-dihydro-2H-benzo[g]indazole-3-carboxamide] | 250 to 2500 nM |
| Cc1nn(Cc2ccc(F)cc2)cc1C(=O)NC1CC2(C1)CC(Oc1ncccc1C(N)=O)C2 [Example 382, N-[(aR)2-[(6-{1-[(4-fluorophenyl)methyl]-3-methyl-1H-pyrazole-4-amido}spiro[3.3]heptan-2-yl)oxy]pyridine-3-carboxamide 1 trifluoroacetic acid salt] | 5 to 50 nM |
| Cc1c(C(=O)N[C@H]2CC3(C2)C[C@H](Oc2ncccc2C(N)=O)C3)cnn1Cc1ccc(F)cc1 (stereo partly drawn) [Example 383, N-[(aR)2-[(6-{1-[(4-fluorophenyl)methyl]-5-methyl-1H-pyrazole-4-amido}spiro[3.3]heptan-2-yl)oxy]pyridine-3-carboxamide 1 trifluoroacetic acid salt] | 5 to 50 nM |
| Cc1c(C(=O)NC2CC3(C2)CC(Oc2ncccc2C(N)=O)C3)cnn1-c1ccc(Cl)cc1 [Example 384, N-[(aR)2-({6-[1-(4-chlorophenyl)-5-methyl-1H-pyrazole-4-amido]spiro[3.3]heptan-2-yl}oxy)pyridine-3-carboxamid 1 trifluoroacetic acid salt] | 5 to 50 nM |
| Cc1c(C(=O)NC2CC3(C2)CC(Oc2ncccc2C(N)=O)C3)cnn1-c1ccc(C#N)cc1 [Example 385, N-[(aR)2-({6-[1-(4-cyanophenyl)-5-methyl-1H-pyrazole-4-amido]spiro[3.3]heplan-2-yl}oxy)pyridine-3-carboxamide1 trifluoroacetic acid salt] | 5 to 50 nM |
| Cc1c(C(=O)NC2CC3(C2)CC(Oc2ncccc2C(N)=O)C3)cnn1-c1ccc(OC(F)(F)F)cc1 [Example 386, N-[(aR)2-[(6-{5-methyl-1-[4-(trifluoromethoxy)phenyl]-1H-pyrazole-4-amido}spiro[3.3]heptan-2-yl)oxy]pyridine-3-carboxamide 1 trifluoroacetic acid salt] | 5 to 50 nM |
| Cc1c(C(=O)NC2CC3(C2)CC(Oc2ncccc2C(N)=O)C3)cnn1-c1ccc(S(C)(=O)=O)cc1 [Example 387, N-[(aR)2-({6-[1-(4-methanesulfonylphenyl)-5-methyl-1H-pyrazole-4-amido]spiro[3.3]heptan-2-yl}oxy)pyridine-3-carboxamide 1 trifluoroacetic acid salt] | 5 to 50 nM |
| Cc1c(C(=O)N[C@H]2CC3(C2)C[C@H](Oc2ncccc2C(N)=O)C3)cnn1-c1ccc(C#N)cc1F (stereo partly drawn) [Example 388, N-[(aR)2-({6-[1-(4-cyano-2-fluorophenyl)-5-methyl-1H-pyrazole-4-amido]spiro[3.3]heptan-2-yl}oxy)pyridine-3-carboxamide 1 trifluoroacetic acid salt] | 50 to 250 nM |
